In PubChem BioAssay AID256 (DTP/NCI, 2004):
Values joined by “and” are separate entries in the source; they are usually repeats but may differ in a detail not shown here. Equal entries are not always repeated. Inconclusive results and toxic doses are left out.

Tested on: CD2F1 mice, L1210 leukemia ip, survival T/C
Experiment: NCI In Vivo Anticancer Drug Screen. Data for tumor model L1210 Leukemia (intraperitoneal) in CD2F1 (CDF1) mice
Details: endpoint: mean survival time, higher = longer survival
Procedure, shortened: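 Mice carrying a transplanted tumor received test compound or vehicle alone. The value is the measurement in the treated group divided by that in the vehicle-treated control group.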

[1] = dose: 25.0 mg/kg/injection, schedule: Q01DX009 (ip), vehicle: saline with Tween-80
[2] = dose: 50.0 mg/kg/injection, schedule: Q01DX009 (ip), vehicle: saline with Tween-80
[3] = dose: 100.0 mg/kg/injection, schedule: Q04DX003 (ip), vehicle: saline with Tween-80
[4] = dose: 100.0 mg/kg/injection, schedule: Q01DX009 (ip), vehicle: saline
[5] = dose: 100.0 mg/kg/injection, schedule: Q04DX003 (ip), vehicle: saline
[6] = dose: 200.0 mg/kg/injection, schedule: Q01DX009 (ip), vehicle: saline
[7] = dose: 200.0 mg/kg/injection, schedule: Q04DX003 (ip), vehicle: saline
[8] = dose: 400.0 mg/kg/injection, schedule: Q04DX003 (ip), vehicle: saline
[9] = dose: 100.0 mg/kg/injection, schedule: Q01DX009 (ip), vehicle: saline with Tween-80
[10] = dose: 200.0 mg/kg/injection, schedule: Q01DX009 (ip), vehicle: saline with Tween-80
[11] = dose: 100.0 mg/kg/injection, schedule: Q04DX003 (ip), vehicle: Klucel (hydroxypropylcellulose) (HPC)
[12] = dose: 200.0 mg/kg/injection, schedule: Q04DX003 (ip), vehicle: Klucel (hydroxypropylcellulose) (HPC)
[13] = dose: 400.0 mg/kg/injection, schedule: Q04DX003 (ip), vehicle: Klucel (hydroxypropylcellulose) (HPC)
[14] = dose: 12.5 mg/kg/injection, schedule: Q04DX003 (ip), vehicle: saline with Tween-80
[15] = dose: 12.5 mg/kg/injection, schedule: Q01DX009 (ip), vehicle: saline with Tween-80
[16] = dose: 200.0 mg/kg/injection, schedule: Q04DX003 (ip), vehicle: saline with Tween-80
[17] = dose: 400.0 mg/kg/injection, schedule: Q04DX003 (ip), vehicle: saline with Tween-80
[18] = dose: 100.0 mg/kg/injection, schedule: Q01DX001 (ip), vehicle: saline with Tween-80
[19] = dose: 200.0 mg/kg/injection, schedule: Q01DX001 (ip), vehicle: saline with Tween-80
[20] = dose: 400.0 mg/kg/injection, schedule: Q01DX001 (ip), vehicle: saline with Tween-80

With `S=C(S)NN1CCCC1` the T/C [1] was 101 % of control, the T/C [2] was 100 % of control and the T/C [3] was 92 % of control.

`COc1ccc2c(c1[N+](=O)[O-])CCCCC2=O` was tested, and the T/C (dose: 50.0 mg/kg/injection, schedule: Q01DX009 (ip), vehicle: other) was 100 % of control, the T/C (dose: 100.0 mg/kg/injection, schedule: Q01DX009 (ip), vehicle: other) was 92 % of control and the T/C (dose: 200.0 mg/kg/injection, schedule: Q01DX009 (ip), vehicle: other) was 100 % of control.

`CC(C)OC(=S)S` was tested, and the T/C [4] was 101 % of control, the T/C [5] was 100 % of control and the T/C [6] was 102 % of control. The T/C [7] was 97 % of control, the T/C (dose: 400.0 mg/kg/injection, schedule: Q01DX009 (ip), vehicle: saline) was 107 % of control and the T/C [8] was 88 % of control.

For `CCOP(=O)(OCC)c1ncn(C2OC(CO)C3OC(C)(C)OC32)c1N` (stereo not drawn), the T/C (dose: 12.5 mg/kg/injection, schedule: Q01DX005 (ip), vehicle: water) was 92 % of control, the T/C (dose: 25.0 mg/kg/injection, schedule: Q01DX005 (ip), vehicle: water) was 100 % of control and the T/C (dose: 50.0 mg/kg/injection, schedule: Q01DX005 (ip), vehicle: water) was 96 % of control. The T/C (dose: 100.0 mg/kg/injection, schedule: Q01DX005 (ip), vehicle: water) was 92 % of control and the T/C (dose: 200.0 mg/kg/injection, schedule: Q01DX005 (ip), vehicle: water) was 92 % of control.

`CCOC(=O)Nc1cc(NC/C(CCc2ccccc2)=N/O)c([N+](=O)[O-])c(N)n1` was tested, and the T/C (dose: 100.0 mg/kg/injection, schedule: Q01DX001 (ip), vehicle: Klucel (hydroxypropylcellulose) (HPC)) was 96 % of control, the T/C (dose: 200.0 mg/kg/injection, schedule: Q01DX001 (ip), vehicle: Klucel (hydroxypropylcellulose) (HPC)) was 91 % of control and the T/C (dose: 400.0 mg/kg/injection, schedule: Q01DX001 (ip), vehicle: Klucel (hydroxypropylcellulose) (HPC)) was 90 % of control.

`O=C(OCc1ccccc1)C1CC1` (tested in a mixture with another compound) was tested, and the T/C [1] was 86 % of control, the T/C (dose: 50.0 mg/kg/injection, schedule: Q01DX005 (ip), vehicle: saline with Tween-80) was 101 % of control and the T/C [2] was 96 % of control. The T/C (dose: 50.0 mg/kg/injection, schedule: Q04DX002 (ip), vehicle: saline) was 102 % of control, the T/C (dose: 100.0 mg/kg/injection, schedule: Q01DX005 (ip), vehicle: saline with Tween-80) was 93 % of control and the T/C [9] was 86 % of control. For the same molecule, the T/C (dose: 100.0 mg/kg/injection, schedule: Q04DX002 (ip), vehicle: saline) was 97 % of control, the T/C (dose: 200.0 mg/kg/injection, schedule: Q01DX005 (ip), vehicle: saline with Tween-80) was 97 % of control and the T/C [10] was 86 % of control. The T/C (dose: 200.0 mg/kg/injection, schedule: Q04DX002 (ip), vehicle: saline) was 105 % of control and the T/C (dose: 400.0 mg/kg/injection, schedule: Q04DX002 (ip), vehicle: saline) was 97 % of control.

In the case of `Cc1ccc(NCCN2CCCCC2)c2c(=O)c3ccccc3sc12`, the T/C [11] is reported as 93 % of control, the T/C [12] is reported as 103 % of control and the T/C [13] is reported as 109 % of control.

With `O=C(O)CC(O)(CC(=O)O)C(=O)O.[Sn]` the T/C (dose: 6.25 mg/kg/injection, schedule: Q04DX003 (ip), vehicle: saline with Tween-80) was 98 % of control, the T/C [14] was 90 % of control and the T/C (dose: 25.0 mg/kg/injection, schedule: Q04DX003 (ip), vehicle: saline with Tween-80) was 102 % of control.

For `c1cnc2ncncc2n1`, the T/C [15] was 94 % of control and 102 % of control, the T/C [1] was 94 % of control and 102 % of control and the T/C [2] was 105 % of control and 106 % of control. For the same molecule, the T/C [9] was 94 % of control and 104 % of control and the T/C [10] was 96 % of control and 110 % of control.

In the case of `COC1(c2ccccc2)C(c2ccccc2)=CC(=O)/C1=C\c1ccccc1` (stereo not drawn), the T/C [3] is reported as 98 % of control, the T/C [16] is reported as 91 % of control and the T/C [17] is reported as 86 % of control.

For `O=c1cc[nH]cc1`, the T/C [9] was 94 % of control, the T/C [5] was 103 % of control and the T/C [10] was 100 % of control. The T/C [7] was 97 % of control, the T/C (dose: 400.0 mg/kg/injection, schedule: Q01DX009 (ip), vehicle: saline with Tween-80) was 96 % of control and the T/C [8] was 95 % of control.

`C[NH-].[Cl][Pt+2][Cl].[NH-]C1CC1` was tested, and the T/C (dose: 1.56 mg/kg/injection, schedule: Q04DX003 (ip), vehicle: saline) was 103 % of control, the T/C (dose: 3.12 mg/kg/injection, schedule: Q04DX003 (ip), vehicle: saline with Tween-80) was 113 % of control and the T/C (dose: 3.12 mg/kg/injection, schedule: Q04DX003 (ip), vehicle: saline) was 103 % of control. The T/C (dose: 6.25 mg/kg/injection, schedule: Q04DX003 (ip), vehicle: saline) was 120 % of control and the T/C [14] was 104 % of control.

In the case of `CCC(=O)NC1CCCCC1`, the T/C [18] is reported as 95 % of control, the T/C [19] is reported as 101 % of control and the T/C [20] is reported as 102 % of control.

For `O=C1C2C(C(=O)N1c1ccccc1)C1c3ccccc3C2C2CCCCN21` (stereo not drawn), the T/C (dose: 12.5 mg/kg/injection, schedule: Q04DX003 (ip), vehicle: Klucel (hydroxypropylcellulose) (HPC)) was 95 % of control, the T/C (dose: 25.0 mg/kg/injection, schedule: Q04DX003 (ip), vehicle: Klucel (hydroxypropylcellulose) (HPC)) was 101 % of control and the T/C (dose: 50.0 mg/kg/injection, schedule: Q04DX003 (ip), vehicle: Klucel (hydroxypropylcellulose) (HPC)) was 93 % of control.

For `Cc1c(Cl)c(Cl)c(NS(=O)(=O)c2ccccc2)c(NS(=O)(=O)c2ccccc2)c1Cl`, the T/C [11] was 97 % of control, the T/C [12] was 104 % of control and the T/C [13] was 95 % of control.

For `O=C(O)c1cc(Cl)[nH]c(=O)c1`, the T/C [3] was 91 % of control, the T/C [16] was 91 % of control and the T/C [17] was 91 % of control.

For `NCCOC(=O)/C=C/c1ccccc1`, the T/C [4] was 93 % of control and the T/C [6] was 97 % of control.

With `O=[N+]([O-])c1ccc(C[P+](c2ccccc2)(c2ccccc2)c2ccccc2)cc1` the T/C (dose: 6.25 mg/kg/injection, schedule: Q04DX002 (ip), vehicle: saline with Tween-80) was 86 % of control, the T/C (dose: 12.5 mg/kg/injection, schedule: Q04DX002 (ip), vehicle: saline with Tween-80) was 108 % of control and the T/C (dose: 25.0 mg/kg/injection, schedule: Q04DX002 (ip), vehicle: saline with Tween-80) was 94 % of control.

In the case of `CC/C=N/NC(N)=S`, the T/C (dose: 5.0 mg/kg/injection, schedule: Q01DX001 (ip), vehicle: saline) is reported as 98 % of control, the T/C (dose: 10.0 mg/kg/injection, schedule: Q01DX001 (ip), vehicle: saline) is reported as 102 % of control and the T/C (dose: 20.0 mg/kg/injection, schedule: Q01DX001 (ip), vehicle: saline) is reported as 106 % of control.

`CC1CC(C)SC(C)S1` (stereo not drawn) was tested, and the T/C (dose: 50.0 mg/kg/injection, schedule: Q04DX002 (ip), vehicle: saline with Tween-80) was 102 % of control, the T/C (dose: 100.0 mg/kg/injection, schedule: Q04DX002 (ip), vehicle: saline with Tween-80) was 105 % of control and the T/C (dose: 200.0 mg/kg/injection, schedule: Q04DX002 (ip), vehicle: saline with Tween-80) was 97 % of control.

In the case of `CCOC(=O)Oc1c(Cl)c(Cl)c(Cl)c(Cl)c1Cl`, the T/C [3] is reported as 96 % of control, the T/C [16] is reported as 96 % of control and the T/C [17] is reported as 95 % of control.

`O=C(O)c1ccccc1C(=O)OCC(c1ccccc1)c1ccccc1` was tested, and the T/C [3] was 97 % of control and the T/C [16] was 89 % of control.

In the case of `COc1ccccc1N=Nc1c(O)n(-c2ccc(Br)cc2)c(=S)n(-c2ccccc2)c1=O`, the T/C [18] is reported as 93 % of control, the T/C [19] is reported as 93 % of control and the T/C [20] is reported as 87 % of control.

With `NC(=O)Nc1cc(NC(N)=O)cc(N(CCCl)CCCl)c1` the T/C (dose: 2.5 mg/kg/injection, schedule: Q01DX009 (ip), vehicle: Klucel (hydroxypropylcellulose) (HPC)) was 108 % of control, the T/C (dose: 5.0 mg/kg/injection, schedule: Q01DX009 (ip), vehicle: Klucel (hydroxypropylcellulose) (HPC)) was 111 % of control and the T/C (dose: 10.0 mg/kg/injection, schedule: Q01DX009 (ip), vehicle: Klucel (hydroxypropylcellulose) (HPC)) was 119 % of control.

In the case of `C/C=C/c1cc2c(c(=O)o1)C(=O)[C@@H](O)[C@H](C)O2`, the T/C (dose: 6.25 mg/kg/injection, schedule: Q01DX009 (ip), vehicle: saline with Tween-80) is reported as 101 % of control, the T/C [15] is reported as 105 % of control and the T/C [1] is reported as 97 % of control. The T/C [2] was 101 % of control and the T/C [9] was 113 % of control.

With `O=NN(CCCl)C(=O)NC1CCN(Cc2ccccc2)CC1` the T/C (dose: 12.5 mg/kg/injection, schedule: Q01DX001 (ip), vehicle: saline with Tween-80) was 123 % of control, the T/C (dose: 50.0 mg/kg/injection, schedule: Q01DX001 (ip), vehicle: saline with Tween-80) was 271 % of control and the T/C [18] was 379 % of control.
